Results published in publication PMC4974565, “Rapid construction of metabolite biosensors using domain-insertion profiling” (Nature Communications, 2016).

Biological target: T1, Tre-C04 (TMBP-cpGFP biosensor; T. litoralis D-trehalose/D-maltose-binding protein) (Thermococcus litoralis, UniProt Q7LYW7)
T1 construct: gene malE; residues 46-450 of TMBP fused to five N-terminal residues of mature E. coli MBP, codon-optimised; expressed in E. coli Tuner, Ni-NTA purified
Assay: cpGFP fluorescence dose-response, purified biosensor, four-parameter fit
Settings: 500 nM protein; PBS; 0-50 μM sugar; Ex 485 / Em 515 nm

T1 sequence (Q7LYW7 374-450): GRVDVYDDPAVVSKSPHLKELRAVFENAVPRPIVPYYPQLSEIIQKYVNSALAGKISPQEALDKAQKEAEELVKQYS
T1 sequence (Q7LYW7 46-373): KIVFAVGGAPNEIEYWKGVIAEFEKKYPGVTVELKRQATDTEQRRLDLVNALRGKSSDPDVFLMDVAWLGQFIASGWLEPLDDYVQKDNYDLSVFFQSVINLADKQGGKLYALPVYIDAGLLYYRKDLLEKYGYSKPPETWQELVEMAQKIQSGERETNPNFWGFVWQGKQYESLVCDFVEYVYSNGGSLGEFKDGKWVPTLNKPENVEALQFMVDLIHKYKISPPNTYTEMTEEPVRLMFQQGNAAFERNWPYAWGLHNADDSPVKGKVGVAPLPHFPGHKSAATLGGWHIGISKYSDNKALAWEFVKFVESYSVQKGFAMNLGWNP

Row | Kd [µM] | Compound
1 | 0.081 ± 0.001 | OC[C@H]1O[C@H](O[C@H]2[C@H](O)[C@@H](O)C(O)O[C@@H]2CO)[C@H](O)[C@@H](O)[C@@H]1O (some centres unmarked) [maltose]
2 | 0.053 ± 0.001 | OC[C@H]1O[C@H](O[C@H]2O[C@H](CO)[C@@H](O)[C@H](O)[C@H]2O)[C@H](O)[C@@H](O)[C@@H]1O [trehalose]
